# Patent publication US20250255847A1, “[…]s: Novel Drugs for Triple Negative Breast Cancer” (SIMMARON RSEARCH INC, priority 2024, published 2025)
# Key:
# Format in all cases: cell-based, human
# [1] = test system: transcriptional activity of STAT3; test: STAT3-responsive eGFP reporter assay in MDA-MB-468 cells; conditions: for EGF-induced GFP reporter activity: EGF 20 ng/mL, different doses; for IC50: Homo sapiens, MDA-MB-468, read-out: IC50 of STAT3 activation (eGFP reporter); for lowest concentration inhibiting STAT3 activation (eGFP reporter): as low as
# Experimental: (§1) FIG. 10 illustrates an embodiment of the present invention and illustrates SIM-1 and SIM-2 inhibit expressions of IL6, RANTES, and other STAT3-dependent tumor promoting genes and proteins. (A) A gene array of STAT3 dependent 66 genes (listed in Table 1) was performed in mRNA samples of MDA-MB-468 cells. Realtime PCR plate coated with 66 primer sets of STAT3-dependent genes was run for four conditions including control, EGF (25 ng/mL), EGF+SIM-1 (10 nM) and EGF+SIM-2 (10 nM). The resultant Ct value was normalized with four different housekeeping genes, and then summarized with a heatmap analyses drawn in Morpheus server of Broad Institute. […] (C) The cloning of STAT3 response element of IL6 promoter upstream of GFP reporter was performed by GeneCopoea genome editing service (Rockville, MD). The bit score map and sequence of consensus STAT3 response element or SEQ ID NO: 2 was shown below. EGFP reporter assay was performed in EGF-induced (20 ng/mL) MDA-MB-468 after treatments of increasing doses of (D) SIM-1 and (E) SIM-2 for 5 hrs. Briefly, MDA-MB-468 cells were transfected with the plasmid for 24 hrs using Lipofectamine transfection strategy followed by the treatment with EGF (20 ng/mL) alone and together with increasing doses SIM-1 and SIM-2 for additional 5 hrs. After that live cells were recorded at Ex:Em=485/535 nm wavelength for GFP activity. (F) The scrambled STAT3 response element in IL6 promoter or SEQ ID NO: 3 was also synthesized partnering with GeneCopoea. One-way ANOVA (treatment as effector) was adopted to test the significance between groups at **p<0.01, #p<0.005, and *p<0.05. (G) The GFP reporter activity was measured where the scrambled gene was cloned upstream of eGFP reporter. Results are mean±SD of three different experiments Ns=no significance. (H) Realtime PCR analyses of IL6 was performed in MDA-MB-468 cells maintained under control, EGF (25 ng/mL), EGF+SIM-1(20 nM), and EGF+SIM-2 (20 nM) conditions for 5 hrs. (I) ELISA analysis of IL6 was performed after 48 hrs in MDA-MB-468 cells kept under similar treatment conditions. (J) Realtime PCR (5 hrs post-treatment) and (K) ELISA analyses of RANTES (48 hrs post treatment) were performed under similar condition. Results are mean±SD of three different experiments. One-way ANOVA (treatment as effector) was adopted to test the significance between groups at ***p<0.001, **p<0.01, and *p<0.05.
# GFP reporter assay. To assay the transcriptional activities of STAT3, cells at 75% confluence were transfected by 0.1 μg of pEZX-PF02 plasmid cloned with STAT3 response element of IL6 promoter upstream of eGFP reporter. The transfection was done by Lipofectamine 3000™ reagent as per the manufacturer's protocol (Thermofisher). […] GFP reporter activities were analyzed in PerkinElmer VictorX3 plate reader at Ex:Em=485/535 nm.
# Once recruited to the DNA, STAT3 controls the gene transcription. Therefore finally, an eGFP reporter assay was performed to evaluate if SIM-1 and SIM-2 inhibited the transcriptional activity of STAT3. An eGFP reporter cassette was cloned under the guidance of IL6 promoter carrying STAT response element (FIG. 10C), transfected in MDA-MB-468 cells, and then treated by EGF (20 ng/mL) along with different doses of SIM-1 and SIM-2.
# IL6 = IL6 real-time PCR and ELISA in MDA-MB-468 cells; conditions: for gene expression of IL6 (real-time PCR): 20 nM, 5 hrs; for IL6 protein in supernatants (ELISA): EGF stimulation, 48 hrs
# Experimental: as §1
# ELISA assay. IL6 (BD OptEIA™; Cat #555220) and RANTES (Thermo; Cat #EHRNTS) ELISA was performed as per manufacturer's protocol. […]
# Once the transcriptional regulation of STAT3-dependent genes was confirmed, the quantification of IL6 was performed. […]
# [2] = test system: STAT3-dependent tumor-promoting genes; test: cDNA-based gene array of 66 STAT3-dependent genes in MDA-MB-468 cells; conditions: 10 nM doses, EGF-stimulated MDA-MB-468
# Experimental: FIG. 10 illustrates an embodiment of the present invention and illustrates SIM-1 and SIM-2 inhibit expressions of IL6, RANTES, and other STAT3-dependent tumor promoting genes and proteins. (A) A gene array of STAT3 dependent 66 genes (listed in Table 1) was performed in mRNA samples of MDA-MB-468 cells. Realtime PCR plate coated with 66 primer sets of STAT3-dependent genes was run for four conditions including control, EGF (25 ng/mL), EGF+SIM-1 (10 nM) and EGF+SIM-2 (10 nM). The resultant Ct value was normalized with four different housekeeping genes, and then summarized with a heatmap analyses drawn in Morpheus server of Broad Institute. […] (C) The cloning of STAT3 response element of IL6 promoter upstream of GFP reporter was performed by GeneCopoea genome editing service (Rockville, MD). The bit score map and sequence of consensus STAT3 response element or SEQ ID NO: 2 was shown below. […] After that live cells were recorded at Ex:Em=485/535 nm wavelength for GFP activity. […] (G) The GFP reporter activity was measured where the scrambled gene was cloned upstream of eGFP reporter. […]
# Gene array. […] After that, mRNA was isolated using the Gene Jet RNA purification kit (Cat. #K0732), quantified by Bio-Rad Smart Spec™ plus spectrophotometer, converted to cDNA by GoScript™ CDNA synthesis kit, as per the manufacturer's instructions. […]
Compound,EGF-induced GFP reporter activity [1],IC50 [1],lowest concentration inhibiting STAT3 activation (eGFP reporter) [1],gene expression of IL6 (real-time PCR) (IL6),IL6 protein in supernatants (ELISA) (IL6),"expressions of tumor-promoting factors, inflammatory cytokine, metastatic and anti-apoptotic genes (AKT, IL6, RANTES, MMPs, Cyclin D1, Bcl-2 etc.) [2]"
"O=C(O)CCC(=O)NCc1csc2ccc(Cl)cc12 [SIM-1, 4-[(5-chloro-1-benzothiophen-3-yl)methylamino]-4-oxobutanoic acid]",dose-dependently inhibited,~20 nM,5 nM,strongly inhibited,suppression of IL6,strongly attenuated
"CCOC(=O)c1c(NC(C)=O)sc2c(Cl)c(/C=N/O)ccc12 [SIM-2, ethyl 2-acetamido-7-chloro-6-(hydroxyiminomethyl)-1-benzothiophene-3-carboxylate]",dose-dependently inhibited,~20 nM,5 nM,strongly inhibited,suppression of IL6,strongly attenuated
